Test results: ChEMBL document CHEMBL1201862, “PubChem BioAssay data set” (2004)
Active and inactive are the calls of the source.

Experiments:
[1] = target: T1, Heat shock factor protein 1 (Mus musculus, UniProt P38532); assay: HSF1 potentiators in luciferase reporter cells, confirmation, cell-based, NIH3T3, luminescence, dose retest (AID 435004); type: functional;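 also: stress induced by proteasome inhibitor MG132 added 30 min after compound; luciferase reporter driven by HSF1 response element in NIH3T3 cells; actives raise luminescence as potentiators of the MG132 stress response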
T1 sequence (P38532 whole entry): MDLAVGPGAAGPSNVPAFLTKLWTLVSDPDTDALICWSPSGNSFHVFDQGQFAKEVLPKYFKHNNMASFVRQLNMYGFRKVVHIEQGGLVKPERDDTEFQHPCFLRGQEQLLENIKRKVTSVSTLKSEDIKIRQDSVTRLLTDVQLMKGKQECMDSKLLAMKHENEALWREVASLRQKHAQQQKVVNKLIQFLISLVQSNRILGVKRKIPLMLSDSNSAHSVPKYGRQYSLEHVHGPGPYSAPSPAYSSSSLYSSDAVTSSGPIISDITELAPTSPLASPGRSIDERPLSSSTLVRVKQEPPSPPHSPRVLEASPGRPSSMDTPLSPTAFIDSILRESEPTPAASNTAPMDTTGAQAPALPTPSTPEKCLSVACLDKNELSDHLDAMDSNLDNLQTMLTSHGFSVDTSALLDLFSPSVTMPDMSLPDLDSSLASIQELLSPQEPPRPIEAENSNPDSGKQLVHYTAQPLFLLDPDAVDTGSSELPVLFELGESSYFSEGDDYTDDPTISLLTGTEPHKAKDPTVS

Cytochrome P450 2C19 = Cytochrome P450 2C19 (Homo sapiens, UniProt P33261); assay: Cytochrome panel assay with activity outcomes. Panel member name: p450-cyp2c19 Compounds with AC50 equal or less than 10 uM are considered active; type: functional
Sequence of Cytochrome P450 2C19 (P33261 whole entry): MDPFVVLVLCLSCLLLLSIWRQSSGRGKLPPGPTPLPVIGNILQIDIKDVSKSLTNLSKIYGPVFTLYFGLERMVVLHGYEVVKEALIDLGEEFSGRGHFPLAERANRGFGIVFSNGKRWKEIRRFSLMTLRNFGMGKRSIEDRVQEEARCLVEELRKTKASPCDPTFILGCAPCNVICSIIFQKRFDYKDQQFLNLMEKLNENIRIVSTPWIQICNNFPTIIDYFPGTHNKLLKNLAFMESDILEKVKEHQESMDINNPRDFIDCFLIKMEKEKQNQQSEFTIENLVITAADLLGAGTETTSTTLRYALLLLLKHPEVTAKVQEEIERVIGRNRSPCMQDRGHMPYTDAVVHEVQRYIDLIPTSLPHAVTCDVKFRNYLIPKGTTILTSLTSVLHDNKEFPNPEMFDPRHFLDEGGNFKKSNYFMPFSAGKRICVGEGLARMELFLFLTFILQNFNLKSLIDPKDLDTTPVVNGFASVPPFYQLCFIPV

Cytochrome P450 1A2 = target: T2, Cytochrome P450 1A2 (Homo sapiens, UniProt P05177);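 also: PubChem cytochrome P450 panel assay, CYP1A2 panel member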
T2 sequence (P05177 whole entry): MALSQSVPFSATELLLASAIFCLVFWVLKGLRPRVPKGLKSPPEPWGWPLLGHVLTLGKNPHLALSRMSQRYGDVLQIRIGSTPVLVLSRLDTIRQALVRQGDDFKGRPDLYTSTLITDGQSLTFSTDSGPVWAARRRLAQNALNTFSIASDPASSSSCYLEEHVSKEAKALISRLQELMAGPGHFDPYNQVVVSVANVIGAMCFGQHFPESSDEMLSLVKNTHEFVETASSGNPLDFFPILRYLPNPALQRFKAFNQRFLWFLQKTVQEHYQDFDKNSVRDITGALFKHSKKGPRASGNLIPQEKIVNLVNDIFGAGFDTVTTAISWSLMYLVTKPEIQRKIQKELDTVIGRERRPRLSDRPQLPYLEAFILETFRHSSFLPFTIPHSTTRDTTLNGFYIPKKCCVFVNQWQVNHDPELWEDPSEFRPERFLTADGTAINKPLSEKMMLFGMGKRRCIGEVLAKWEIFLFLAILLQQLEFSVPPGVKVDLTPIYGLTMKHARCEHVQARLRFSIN

Cytochrome P450 3A4 = Cytochrome P450 3A4 (Homo sapiens, UniProt P08684);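 also: CYP3A4 tested as one member of a cytochrome P450 panel screen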
Sequence of Cytochrome P450 3A4 (P08684 whole entry): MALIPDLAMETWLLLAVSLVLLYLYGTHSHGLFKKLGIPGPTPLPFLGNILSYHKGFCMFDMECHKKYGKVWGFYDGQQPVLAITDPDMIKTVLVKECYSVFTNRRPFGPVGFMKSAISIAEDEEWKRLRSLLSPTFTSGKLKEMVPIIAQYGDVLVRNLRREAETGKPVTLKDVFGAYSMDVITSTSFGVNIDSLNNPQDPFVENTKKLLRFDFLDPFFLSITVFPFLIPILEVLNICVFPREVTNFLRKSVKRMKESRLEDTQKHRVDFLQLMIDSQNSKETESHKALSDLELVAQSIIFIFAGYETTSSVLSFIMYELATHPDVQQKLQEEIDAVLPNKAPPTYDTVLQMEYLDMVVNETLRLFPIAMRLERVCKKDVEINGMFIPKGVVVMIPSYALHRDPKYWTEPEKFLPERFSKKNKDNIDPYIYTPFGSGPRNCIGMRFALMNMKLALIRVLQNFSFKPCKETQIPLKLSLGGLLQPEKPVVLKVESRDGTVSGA

Cytochrome P450 2C9 = Cytochrome P450 2C9 (Homo sapiens, UniProt P11712)
Sequence of Cytochrome P450 2C9 (P11712 whole entry, the tested form may be a part): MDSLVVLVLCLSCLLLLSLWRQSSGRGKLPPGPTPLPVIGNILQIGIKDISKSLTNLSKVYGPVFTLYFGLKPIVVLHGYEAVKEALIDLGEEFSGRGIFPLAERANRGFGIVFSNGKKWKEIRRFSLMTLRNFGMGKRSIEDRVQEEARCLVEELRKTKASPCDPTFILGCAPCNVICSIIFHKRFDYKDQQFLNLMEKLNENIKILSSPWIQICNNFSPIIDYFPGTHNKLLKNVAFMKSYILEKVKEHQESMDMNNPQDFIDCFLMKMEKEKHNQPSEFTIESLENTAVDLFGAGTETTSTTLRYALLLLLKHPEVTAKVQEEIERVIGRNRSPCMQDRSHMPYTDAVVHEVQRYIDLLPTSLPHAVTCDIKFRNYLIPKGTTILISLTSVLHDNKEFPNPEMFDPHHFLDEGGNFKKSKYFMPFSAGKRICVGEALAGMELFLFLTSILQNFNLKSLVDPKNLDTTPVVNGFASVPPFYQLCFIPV

[2] = target: T3, RNA-binding protein pos-1 (Caenorhabditis elegans, UniProt G5EF15); assay: inhibitors of POS-1/mex-3 RNA binding, dose response, biochemical, fluorescence polarization (AID 1964);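 also: purified POS-1 fused to maltose binding protein made in E. coli; potency of compounds blocking POS-1 binding to fluorescent RNA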
T3 sequence (G5EF15 whole entry): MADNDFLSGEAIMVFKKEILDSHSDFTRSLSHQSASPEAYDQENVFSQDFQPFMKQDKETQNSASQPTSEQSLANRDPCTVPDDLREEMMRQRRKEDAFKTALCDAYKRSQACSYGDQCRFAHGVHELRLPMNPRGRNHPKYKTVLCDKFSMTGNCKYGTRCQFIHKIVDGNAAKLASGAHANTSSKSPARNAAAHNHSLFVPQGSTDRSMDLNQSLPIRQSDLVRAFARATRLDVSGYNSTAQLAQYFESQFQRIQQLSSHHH

[3] = target: T4, Zinc finger protein mex-5 (Caenorhabditis elegans, UniProt Q9XUB2); assay: MEX-5/TCR-2 RNA interaction inhibitors, dose response, biochemical, C. elegans, fluorescence polarization (AID 1960)
T4 sequence (Q9XUB2 whole entry): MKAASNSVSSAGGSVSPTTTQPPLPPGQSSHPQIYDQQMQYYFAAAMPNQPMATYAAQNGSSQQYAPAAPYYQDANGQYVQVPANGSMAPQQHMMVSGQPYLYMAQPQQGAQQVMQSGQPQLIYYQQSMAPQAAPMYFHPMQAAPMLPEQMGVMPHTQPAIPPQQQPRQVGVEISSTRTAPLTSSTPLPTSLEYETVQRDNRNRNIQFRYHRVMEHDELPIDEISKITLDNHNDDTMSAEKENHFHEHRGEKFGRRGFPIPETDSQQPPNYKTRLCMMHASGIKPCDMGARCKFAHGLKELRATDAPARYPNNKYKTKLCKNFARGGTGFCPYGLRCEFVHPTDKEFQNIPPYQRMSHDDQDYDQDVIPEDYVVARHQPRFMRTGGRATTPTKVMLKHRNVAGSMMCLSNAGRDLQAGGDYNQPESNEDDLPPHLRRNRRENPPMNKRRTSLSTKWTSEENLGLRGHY

[4] = target: T5, Corticotropin-releasing factor receptor 2/Corticotropin-releasing factor-binding protein (Homo sapiens, UniProt P24387+Q13324); assay: activators of CRF receptor 2 with binding protein – uHTS hits, confirmation (AID 602473); type: functional; settings: read-out: EC50_Mean
T5 sequence (Q13324 whole entry): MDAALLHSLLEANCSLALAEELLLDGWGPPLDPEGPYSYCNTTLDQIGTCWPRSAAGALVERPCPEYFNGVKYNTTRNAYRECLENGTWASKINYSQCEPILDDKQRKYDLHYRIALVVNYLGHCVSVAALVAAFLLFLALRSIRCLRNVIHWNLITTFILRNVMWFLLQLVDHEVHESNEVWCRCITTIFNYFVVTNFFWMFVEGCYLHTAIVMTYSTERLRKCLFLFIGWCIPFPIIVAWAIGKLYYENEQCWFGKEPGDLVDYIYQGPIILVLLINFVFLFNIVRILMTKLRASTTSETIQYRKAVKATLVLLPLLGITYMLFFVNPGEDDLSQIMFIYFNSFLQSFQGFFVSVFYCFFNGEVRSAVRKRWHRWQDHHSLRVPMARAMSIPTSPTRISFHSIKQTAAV
T5 sequence (P24387 whole entry): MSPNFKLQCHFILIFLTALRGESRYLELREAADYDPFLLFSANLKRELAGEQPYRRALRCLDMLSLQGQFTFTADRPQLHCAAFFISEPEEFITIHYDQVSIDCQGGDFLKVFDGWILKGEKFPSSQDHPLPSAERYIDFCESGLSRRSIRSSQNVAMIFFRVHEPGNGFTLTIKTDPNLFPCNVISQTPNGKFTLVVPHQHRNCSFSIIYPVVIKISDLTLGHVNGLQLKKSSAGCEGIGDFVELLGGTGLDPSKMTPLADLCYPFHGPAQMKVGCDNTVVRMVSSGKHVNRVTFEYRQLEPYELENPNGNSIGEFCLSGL

CCn1c(SCC(=O)c2ccc(Cl)cc2)nnc1-c1ccoc1C
EC50 [1]: > 260 µM (inactive)

NCCSc1nc(-c2ccccc2)c(-c2ccccc2)o1
AC50 (Cytochrome P450 2C19; read-out: AC50): 0.00794 µM (inconclusive) | AC50 (Cytochrome P450 1A2): 3.16 µM (inconclusive)

CC(C)(C)c1ccc(-c2nnc(SCc3ccc(Cl)cc3)n2-c2cccc(C(F)(F)F)c2)cc1
AC50 (Cytochrome P450 1A2): 3.16 µM (inconclusive) | AC50 (Cytochrome P450 3A4): 3.16 µM (inconclusive) | AC50 (Cytochrome P450 2C9): 3.16 µM (inconclusive)

Nc1nc(N)c(/N=N\c2ccc(C(=O)O)c(O)c2)c(N)n1
AC50 (Cytochrome P450 2C19; read-out: AC50): 0.631 µM (inconclusive)

COC(=O)N1CCC2(CCCN(C(=O)Nc3cccc(F)c3)C2)CC1
AC50 (Cytochrome P450 3A4): 25.1 µM (inconclusive)

O=C(c1cccs1)N1CCN(C(=O)C(c2ccccc2)c2ccccc2)CC1
AC50 (Cytochrome P450 2C19; read-out: AC50): 25.1 µM (inconclusive)

O=C1NC(=O)N(Cc2ccccc2)C(=O)/C1=C/NNC(=O)c1ccncc1
EC50 [2]: 43.9 µM (active) | EC50 [3]: 93.9 µM (active)

O=C(NCCn1cccn1)C1CCC(=O)N(CCc2cccc(F)c2)C1 (stereo not given)
EC50 [1]: > 260 µM (inactive)

CCc1ccc2c(-c3cccc(Cl)c3)nc(=O)n(CC)c2n1
AC50 (Cytochrome P450 3A4): 31.6 µM (inconclusive) | AC50 (Cytochrome P450 2C9): 39.8 µM (inconclusive)

O=C(CSc1ccc(Cl)cc1)Nc1ccc(N2CCN(C(=O)c3ccc(Cl)cc3)CC2)cc1
AC50 (Cytochrome P450 2C19; read-out: AC50): 14.1 µM (inconclusive)

C[C@@]1(C(NC(=O)c2cccs2)c2ccc(-c3ccccc3)cc2)C[C@H]1C1CCCCC1 (stereo not given in full)
AC50 (Cytochrome P450 3A4): 20 µM (inconclusive)

Cc1ccc(S(=O)(=O)n2c(=O)oc3ccccc32)cc1
EC50 [1]: > 260 µM (inactive)

COc1ccc(CNC(=O)C(c2ccc(C)o2)N(C(=O)c2csnn2)c2ccc(C(C)C)cc2)cc1 (stereo not given)
EC50 [1]: 73.7 µM (active)

O=C(O)c1ccccc1N(c1ccccc1)c1ccccc1
EC50 [2]: > 300 µM (not active) | EC50 [3]: > 300 µM (not active)

CCCCn1cnc2c(oc3nc4c(cc32)CCCC4)c1=O
EC50 [1]: > 260 µM (inactive)

CC(C)CNC(=O)C1Nc2ccc(OC(F)(F)F)cc2C2C=CCC12 (stereo not given)
EC50 [2]: > 300 µM (not active) | EC50 [3]: > 300 µM (not active)

Cc1c(Cl)cccc1NC(=O)CCC(=O)NNC(=O)c1ccco1
AC50 (Cytochrome P450 2C19): inconclusive

CN1CCN(c2ncc3nc(-c4cn(C)c5ccccc45)c(=O)n(C)c3n2)CC1
AC50 (Cytochrome P450 1A2): 31.6 µM (inconclusive) | AC50 (Cytochrome P450 3A4): 25.1 µM (inconclusive) | AC50 (Cytochrome P450 2C9): 12.6 µM (inconclusive)

Cc1cccc(/C=C(\C(=O)C(=O)O)c2ccc3ccccc3n2)c1
EC50 [2]: 27.2 µM (active) | EC50 [3]: 22.9 µM (active)

C/C(CCC(=O)OC[C@@H]1O[C@H](C#Cc2ccccc2)C=C[C@@H]1Oc1ccc(C)cc1)=N/OC[C@@H](O)COCc1ccco1
AC50 (Cytochrome P450 2C9): 1.58 µM (inconclusive)

Cc1cc(C)n(CCCNCC(O)c2ccccc2)n1 (stereo not given)
AC50 (Cytochrome P450 1A2): 39.8 µM (inconclusive) | AC50 (Cytochrome P450 3A4): 35.5 µM (inconclusive)

COc1cc(OC)c2c(c1Cl)O[C@@]1(C2=O)[C@H](C)CC(=O)C[C@@H]1OC
AC50 (Cytochrome P450 1A2): 15.8 µM (inconclusive) | AC50 (Cytochrome P450 3A4): 12.6 µM (inconclusive)

Cc1cccn2c(=O)c3c(nc12)N1CCC(Cc2ccccc2)CC1C1(C3)C(=O)N(C)C(=O)N(C)C1=O (stereo not given)
EC50 [1]: > 260 µM (inactive)

COc1ncc2nc(-c3cn(C)c4ccccc34)c(=O)n(C)c2n1
AC50 (Cytochrome P450 2C19): inconclusive

CNc1nc(Nc2ccc(C)c(Cl)c2)nc(N)c1[N+](=O)[O-]
EC50 [1]: 82.2 µM (active)

O=C(O)CSc1nnnn1-c1ccc2c(c1)OCCO2
EC50 [1]: > 260 µM (inactive)

O=C(c1cccc(F)c1)N1CCC2(CCCN(Cc3ccncc3)C2)CC1
AC50 (Cytochrome P450 1A2): 15.8 µM (inconclusive) | AC50 (Cytochrome P450 3A4): 3.98 µM (inconclusive)

O=C1NC(=O)C(=Cc2ccc(-c3ccc(S(=O)(=O)N4CCOCC4)cc3)o2)C(=O)N1
EC50 [2]: 40.5 µM (active) | EC50 [3]: 34.7 µM (active)

O=S(=O)(c1ccccc1)N1CCCC1c1nc2ccccc2s1 (stereo not given)
AC50 (Cytochrome P450 1A2): 25.1 µM (inconclusive) | AC50 (Cytochrome P450 3A4): 20 µM (inconclusive)

O=C(c1cc(C(F)(F)F)cc(C(F)(F)F)c1)N1CCC2(CCCN(Cc3nccs3)C2)CC1
AC50 (Cytochrome P450 2C19): inconclusive

O=C(c1ccco1)N1CCc2ccccc21
EC50 [2]: > 300 µM (not active) | EC50 [3]: 169 µM (active)

COC(=O)[C@H]1C[C@@H]1[C@H](NC(=O)c1cc(C)nn1C)c1ccccc1
AC50 (Cytochrome P450 2C19; read-out: AC50): 15.8 µM (inconclusive)

CCOC(=O)N1CCN(CC(=O)c2ccc(O)cc2O)CC1
EC50 [2]: 157 µM (active) | EC50 [3]: 40.7 µM (active)

CCC[C@@H]1C[C@@]1(CCC)C(NC(=O)c1ccccc1)c1cccc(Cl)c1 (stereo not given in full)
AC50 (Cytochrome P450 3A4): 3.98 µM (inconclusive) | AC50 (Cytochrome P450 2C9): 20 µM (inconclusive)

Cc1occc1C(=O)NNS(=O)(=O)c1ccc([N+](=O)[O-])cc1
EC50 [1]: > 260 µM (inactive)

O=C(NCc1cccc(F)c1)c1cccc2c1C(=O)c1ccc(N3CCCC3)cc1S2(=O)=O
EC50 [4]: 6.84 µM (active)

COc1ccccc1N1CCN(C2CCCCC2NS(=O)(=O)c2ccc(Cl)cc2)CC1 (stereo not given)
EC50 [4]: 4.3 µM (active)

CCOC(=O)Cn1nnc(-c2cccc(OC)c2)n1
EC50 [1]: > 260 µM (inactive)

CN(C)c1ccc(/C=N/NC2=NS(=O)(=O)c3ccccc32)cc1
EC50 [2]: 39.3 µM (active) | EC50 [3]: > 300 µM (inconclusive)

COc1ccc(/C=N/n2cncn2)cc1COc1ccc(NC(C)=O)cc1
EC50 [1]: > 260 µM (inactive)

O=C(NNC(=O)c1ccccc1[N+](=O)[O-])/C(O)=C/C(=O)c1ccccc1
EC50 [2]: 70 µM (active) | EC50 [3]: 1.11 µM (active)

COc1ccc(C(OCCN2CCC[C@@H](C(=O)O)C2)(c2ccc(OC)cc2)c2ccc(OC)cc2)cc1
AC50 (Cytochrome P450 1A2): 31.6 µM (inconclusive) | AC50 (Cytochrome P450 3A4): 31.6 µM (inconclusive)

CCOC(=O)C1=C(C)NC(=S)NC1c1cccc(O)c1 (stereo not given) [MONASTROL]
AC50 (Cytochrome P450 1A2): 39.8 µM (inconclusive) | AC50 (Cytochrome P450 2C9): 20 µM (inconclusive)
